Source: patent publication US7438931B2, “Methods and compositions for the treatment of angiogenic diseases” (The Regents of The University of Michigan, priority 1998, dated 2008)

Assays:
copper toxicity = conditions: cited from earlier work
Serum ceruloplasmin (Cp) = assay: Phase I trial: serum ceruloplasmin as surrogate marker of total-body copper; type: in vivo, human
Protocol: Three dose regimens were evaluated. All dose levels consisted of TM 20 mg given 3 times daily with meals plus an escalating (levels I, II, and III) in-between meal dosing, given 3 times daily, for a total of 6 doses per day. Loading dose levels I, II, and III provided TM at 10 mg, 15 mg, and 20 mg, 3 times daily between meals, respectively, in addition to the 3 doses of 20 mg each, given with meals, at all dose levels.
Baseline Cp was taken as the nearest Cp measurement to day 1 of treatment, including day 1, since the blood was drawn pre-TM, for all patients. The target Cp reduction was defined as 20% of baseline Cp. Due to Cp assay variability of approximately 2%, a change of Cp to 22% of baseline was considered as achieving the desired reduction of copper. In addition, if the absolute Cp was less than 5 mg/dl, then the patient was considered as having reached the target Cp. No patient reached the target due to an absolute Cp of less that 5 mg/dl, without also being at least 78% reduced from baseline. After reaching the target copper deficient state, TM doses were individually tailored to maintain Cp within a target window of 70-90% reduction from baseline.
A method was required to monitor copper status easily and reliably, so that TM dose could be adjusted appropriately during this trial. With TM administration, serum copper is not a useful measure of total-body copper, because the TM-copper-albumin complex is not rapidly cleared, and the total serum copper (including the fraction bound to the TM-protein complex) actually increases during TM therapy (Brewer et al., 1991a; 1994b; 1996). The serum ceruloplasmin level obtained weekly was used as a surrogate measure of total-body copper status. The serum Cp level is controlled by Cp synthesis by the liver, which, in turn, is determined by copper availability to the liver (Linder et al., 1979). […] The serum Cp level is in the range of 20-35 mg/dl and 30-65 mg/dl for normal controls and cancer patients, respectively. The objective as this trial was to reduce Cp to or below 20% of baseline, and to maintain this level, within a window spanned by (20±10) % of the baseline Cp, with typical Cp values in the range of 7-12 mg/dl. Since there appears to be no untoward clinical effects from this degree of copper reduction, this level of copper deficiency has been termed “chemical copper deficiency”. The first indication of true clinical copper deficiency is a reduction in blood cell counts, primarily anemia, as copper is required for heme synthesis as well as cellular proliferation (Brewer et al., 1996). Thus, the copper deficiency objective of this trial was to reduce the Cp to 20% of baseline or below, without decreasing the patient's hematocrit or WBC to below 80% of the baseline value at entry.
Complete blood counts, liver and renal function tests, urinalyses, and Cp level (by the oxidase method) were performed weekly for 16 weeks, then bi-weekly. Physical examinations and evaluations of toxicity were carried out every 2 weeks for 8 weeks, then every 4 weeks for the duration of therapy. Toxicity was evaluated using the National Cancer Institute Common Toxicity Criteria (Table 3). As TM is not a cytotoxic drug at the doses employed, and it has already been given to humans without any other toxicities than the ones described in detail above, the majority of the toxicities listed in Table 3, should they arise, are not expected to be due to TM. Nevertheless, therapy will be discontinued and the patient removed from the study if grade 3 or higher toxicities of any type are observed, whatever the probable etiology. For grade 2 toxicities, an attempt will be made to establish their etiology.

[1] = initial TM doses 90 to 120 mg per day, six times per day regimen

tetrathiomolybdate [TM]
tolerability of IV TM injections (copper toxicity; copper loaded sheep, 50 or 100 mg 2× weekly for up to 11 weeks): tolerated up to 22 injections of TM without clinical problems | adverse side effects (copper toxicity; over 400 animals of commercial sheep flocks, prophylactic use): no adverse side effects | No. of Patients: Achieved Target Cp (Serum ceruloplasmin (Cp); 18 patients): 14 | No. of Patients: Did Not Achieve Target Cp (Serum ceruloplasmin (Cp); 18 patients): 4 | time to Cp 50% of baseline, mean (Serum ceruloplasmin (Cp); 90, 105 and 120 mg/day): 30 days | time to Cp 50% of baseline, median (Serum ceruloplasmin (Cp); 90, 105 and 120 mg/day): 28 days | time for further reduction to Cp levels of 5-10 mg/dl (Serum ceruloplasmin (Cp); after reduction to 50% of baseline): 20 to 30 days | effect of increasing in-between meals dose on Cp decrease (Serum ceruloplasmin (Cp); from 10 mg 3× daily to 15 mg or 20 mg 3× daily): no significant effect on the rate of decrease of the Cp level | No. of Patients: Target Cp <90 days (Serum ceruloplasmin (Cp); in vivo): 8/14 | No. of Patients: Target Cp >90 days (Serum ceruloplasmin (Cp); in vivo): 6/14 | patients maintained at the target Cp for more than 90 days (Serum ceruloplasmin (Cp); in vivo): 39 % of those treated | time to rapid rise in Cp when TM was discontinued (Serum ceruloplasmin (Cp); in vivo): ≤ 48 h | patients with serum Cp lowered to 20% of baseline (Serum ceruloplasmin (Cp); [1]): 14 out of 18 | patients with serum Cp lowered to 50% of baseline (Serum ceruloplasmin (Cp); [1]): 17 out of 18 | reaching the target Cp (Serum ceruloplasmin (Cp); level III dose 120 mg/day): effective in reaching the target Cp, without added toxicity
